Experimental data: patent EP0925782A2, “Cosmetics” (SOGO PHARMACEUTICAL COMPANY LIMITED, priority 1997, dated 1999)
Structures can show the parent of a compound that is named as a salt.

Key:
[1] = Test for a moisturizability (weight change after standing at constant temperature and humidity); assay type: physicochemical; conditions: dried sample, 20°C, humidity 75% for 7 days, then 20°C, humidity 45% for 7 days, evaluated from change in weight
Procedure: Approximately one gram of a sample was taken in a weighing bottle, and dried with diphosphorus pentoxide under reduced pressure for 4 hours. The resulting sample was used in the following test. The weight was accurately measured, and the sample was allowed to stand in a constant temperature and constant humidity box having a temperature of 20°C and a humidity of 75% for 7 days. Subsequently, the sample was moved in a constant temperature and constant humidity box having a temperature of 20°C and a humidity of 45%, and allowed to stand for 7 days. The moisturizability was evaluated from the change in weight. As a control sample, glycerin was used. […]

rat = conditions: p. o.; cited from earlier work

Row | SMILES | Water holding capacity (%) ([1]; sodium salt) | Water holding capacity (%) [1] [%] | LD50 (rat) [mg/kg]
1 | N[C@@H](CCC(=O)NCCS(=O)(=O)O)C(=O)O [Glutaurine sodium salt, glutaurine sodium salt] | 19.45 |  | 
2 | N[C@@H](CCC(=O)NCCS(=O)(=O)O)C(=O)O [Glutaurine, glutaurine] |  | 17.12 | > 1000
3 | OCC(O)CO [Glycerin, glycerin, reference compound] |  | 19.88 | 
